SMILES strings stand for the structures.

Holding throughout (assay type): functional
Experiment [1] concerns Rattus norvegicus. As to the kind of experiment: Compound was tested for hallucinogenic activity in rats at 15 dose(mg/kg); 0/0, highest dose tested.
Experiment [2] relates to Rattus norvegicus. Kind of experiment: Compound was tested for hallucinogenic activity in rats at 1.95 dose(mg/kg); Number of rats selecting the LSD lever/ number of rats responding (1/7).
In experiment [3] the test system is Rattus norvegicus. As to the kind of experiment: Compound was tested for hallucinogenic activity in rats at the dose 0.37(mg/kg); Number of rats selecting the LSD lever/ number of rats responding (0/8).
The subject of experiment [4] is Rattus norvegicus. Kind of experiment: Compound was tested for hallucinogenic activity in rats at 2.07 dose(mg/kg); 0/0, highest dose tested.
For experiment [5], the system named is Rattus norvegicus. Kind of experiment: Compound was tested for hallucinogenic activity in rats at the dose 0.73(mg/kg); Number of rats selecting the LSD lever/ number of rats responding (0/8).
In experiment [6] the test system is Rattus norvegicus. Kind of experiment: Compound was tested for hallucinogenic activity in rats at 1.84 dose(mg/kg); 2/4, highest dose tested.
Experiment [7] deals with Rattus norvegicus. As to the kind of experiment: Compound was tested for hallucinogenic activity in rats at the dose 0.34 (mg/kg); Number of rats selecting the LSD lever/ number of rats responding (0/8).
For experiment [8], the system named is Rattus norvegicus. Kind of experiment: Compound was tested for hallucinogenic activity in rats at 1.38 dose(mg/kg); Number of rats selecting the LSD lever/ number of rats responding (3/8).
The subject of experiment [9] is Rattus norvegicus. Kind of experiment: Compound was tested for hallucinogenic activity in rats at the dose 0.69(mg/kg); Number of rats selecting the LSD lever/ number of rats responding (0/8).
The test system of experiment [10] is Rattus norvegicus. Kind of experiment: Compound was tested for hallucinogenic activity in rats at 1.84 dose(mg/kg); Number of rats selecting the LSD lever/ number of rats responding (3/8).
Experiment [11] concerns Rattus norvegicus. As to the kind of experiment: Compound was tested for hallucinogenic activity in rats at 1.38 dose(mg/kg); Number of rats selecting the LSD lever/ number of rats responding (2/8).
In experiment [12] the test system is Rattus norvegicus. Kind of experiment: Compound was tested for hallucinogenic activity in rats at the dose 0.34 (mg/kg); Number of rats selecting the LSD lever/ number of rats responding (2/8).
The subject of experiment [13] is Rattus norvegicus. As to the kind of experiment: Compound was tested for hallucinogenic activity in rats at 2.19 dose(mg/kg); 0/1, highest dose tested.
Experiment [14] deals with Rattus norvegicus. Kind of experiment: Compound was tested for hallucinogenic activity in rats at the dose 0 (mg/kg).
Experiment [15] has as its system Rattus norvegicus. Kind of experiment: Compound was tested for hallucinogenic activity in rats at 0.63 dose(mg/kg); Number of rats selecting the LSD lever/ number of rats responding (2/8).
Experiment [16] deals with Rattus norvegicus. As to the kind of experiment: Compound was tested for hallucinogenic activity in rats at 0.32dose (mg/kg); Number of rats selecting the LSD lever/ number of rats responding (0/8).
The subject of experiment [17] is Rattus norvegicus. Kind of experiment: Compound was tested for hallucinogenic activity in rats at 0.32(mg/kg).
In experiment [18] the test system is Rattus norvegicus. Kind of experiment: Compound was tested for hallucinogenic activity in rats at 1.72 dose(mg/kg); Number of rats selecting the LSD lever/ number of rats responding (7/8).
For experiment [19], the system named is Rattus norvegicus. As to the kind of experiment: Compound was tested for hallucinogenic activity in rats at 1.29 dose(mg/kg); Number of rats selecting the LSD lever/ number of rats responding (5/8).
For experiment [20], the system named is Rattus norvegicus. Kind of experiment: Compound was tested for hallucinogenic activity in rats at the dose of 0.04(mg/kg); Number of rats selecting the LSDlever/ number of rats responding (6/8).
The subject of experiment [21] is Rattus norvegicus. Kind of experiment: Compound was tested for hallucinogenic activity in rats at the dose of 0.005(mg/kg); Number of rats selecting the LSDlever/ number of rats responding (4/8).
Experiment [22] relates to Rattus norvegicus. Kind of experiment: Compound was tested for hallucinogenic activity in rats at the dose of 0.01(mg/kg); Number of rats selecting the LSDlever/ number of rats responding (4/8).
Experiment [23] has as its system Rattus norvegicus. Kind of experiment: Compound was tested for hallucinogenic activity in rats at the dose of 0.08(mg/kg); Number of rats selecting the LSDlever/ number of rats responding (8/8).
Experiment [24] deals with Rattus norvegicus. Kind of experiment: Compound was tested for hallucinogenic activity in rats at the dose of 0.02(mg/kg); Number of rats selecting the LSDlever/ number of rats responding (5/8).
Experiment [25] deals with Rattus norvegicus. Kind of experiment: Compound was tested for hallucinogenic activity in rats at the dose 0.0025 (mg/kg).
Experiment [26] concerns Rattus norvegicus. As to the kind of experiment: Compound was tested for hallucinogenic activity in rats at the dose of 0.0025 (mg/kg); Number of rats selecting the LSDlever/ number of rats responding (0/8).

In the case of `CC[C@@H](Cc1ccc2c(c1)OCO2)NC`, the Result in the experiment on Rattus norvegicus [1] amounted to 0.
For the molecule `CCC(Cc1ccc2c(c1)OCO2)NC` (racemic), the Result in the experiment with Rattus norvegicus [2] was 1; in the experiment on Rattus norvegicus [3], 0; with Rattus norvegicus [4], 0; with Rattus norvegicus [5] it was 0.
For `CCC(N)Cc1ccc2c(c1)OCO2` (racemic), the Result with Rattus norvegicus [6] is 2; in the experiment on Rattus norvegicus [7] it was 0; with Rattus norvegicus [8], 3; in the experiment on Rattus norvegicus [9] it was 0.
With `CNC(C)Cc1ccc2c(c1)OCO2` (racemic) [MIDOMAFETAMINE], the Result in the experiment with Rattus norvegicus [10] is 3; in the experiment on Rattus norvegicus [11], 2; in the experiment on Rattus norvegicus [12], 2; with Rattus norvegicus [13] it was 0; in the experiment with Rattus norvegicus [9], 0.
`CC(N)Cc1ccc2c(c1)OCO2` (racemic) [TENAMFETAMINE]: the ED50 in the experiment with Rattus norvegicus [14] came to 4.52 µmol/kg; in the experiment with Rattus norvegicus [17], 0.97 mg/kg. Further, the Result with Rattus norvegicus [15] is recorded as 2; in the experiment with Rattus norvegicus [16], 0; in the experiment with Rattus norvegicus [18] it was 7; in the experiment on Rattus norvegicus [19], 5.
For `CCN(CC)C(=O)[C@@H]1C=C2c3cccc4[nH]cc(c34)C[C@H]2N(C)C1` [LYSERGIDE], the Result in the experiment on Rattus norvegicus [20] was found to be 6; in the experiment with Rattus norvegicus [21] it was 4; in the experiment with Rattus norvegicus [22] it was 4; with Rattus norvegicus [23], 8; with Rattus norvegicus [24], 5; with Rattus norvegicus [26], 0. Besides, in the experiment with Rattus norvegicus [25], it took a dose of 0.025 µmol/kg to reach the 50% effect level (ED50).

For orientation: ED50 means the dose at which the effect has come halfway, by size or by number of responders. Low values mean an effect at a small dose, high ones a need for a large dose.
